Source: the supplement of paper PMC11061612

Legend:
Assay in all cases: combination Emax (second highest fraction inhibited in the dose matrix, 72 h); higher = more inhibition; extreme values may be limits of the assay
[1] = system: A3-KAW (B-Cell Non-Hodgkin's Lymphoma)
Method in brief: (§1)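 After 24 hours at 37°C and 5% CO2 in 1536-well plates, cells in DMEM/F12 or RPMI plus 10% FBS received two-drug dose matrices for 72 hours. Viability came from CellTiter-Glo 2.0 luminescence and was scaled as inhibition, anchored at 0 by vehicle wells and at 1 by blank wells. Combination Emax is taken as the second-highest inhibition in the matrix, and Bliss excess as the observed combination effect less EA + EB − EA·EB, with EA and EB the single-agent effects.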

[2] = system: A549 (Lung Adenocarcinoma)
Method in brief: as §1

[3] = system: CAL-29 (Bladder Carcinoma)
Method in brief: as §1

[4] = system: CCK-81 (Colorectal Carcinoma)
Method in brief: as §1

[5] = system: ECC10 (Gastric Carcinoma)
Method in brief: as §1

FU97 (Gastric Carcinoma) = system: FU97 (Gastric Carcinoma)
Method in brief: as §1

[6] = system: HCC1954 (Breast Carcinoma)
Method in brief: as §1

Hs-445 (Non-Cancerous) = system: Hs-445 (Non-Cancerous)
Method in brief: as §1

IGR-37 (Melanoma) = system: IGR-37 (Melanoma)
Method in brief: as §1

[7] = system: MDST8 (Colorectal Carcinoma)
Method in brief: as §1

[8] = system: NCI-H1666 (Lung Adenocarcinoma)
Method in brief: as §1

NCI-H2591 (Mesothelioma) = system: NCI-H2591 (Mesothelioma)
Method in brief: as §1

[9] = system: ONS-76 (Other Solid Carcinomas)
Method in brief: as §1

[10] = system: OS-RC-2 (Kidney Carcinoma)
Method in brief: as §1

[11] = system: PANC-10-05 (Pancreatic Carcinoma)
Method in brief: as §1

[12] = system: SK-MES-1 (Squamous Cell Lung Carcinoma)
Method in brief: as §1

[13] = system: SK-MG-1 (Low Grade Glioma)
Method in brief: as §1

[14] = system: TT (Thyroid Gland Carcinoma)
Method in brief: as §1

U-2-OS (Osteosarcoma) = system: U-2-OS (Osteosarcoma)
Method in brief: as §1

[15] = system: VCaP (Prostate Carcinoma)
Method in brief: as §1

| Compound | combination Emax [1] | combination Emax [2] | combination Emax [3] | combination Emax [4] | combination Emax [5] | combination Emax (FU97 (Gastric Carcinoma)) | combination Emax [6] | combination Emax (Hs-445 (Non-Cancerous)) | combination Emax (IGR-37 (Melanoma)) | combination Emax [7] | combination Emax [8] | combination Emax (NCI-H2591 (Mesothelioma)) | combination Emax [9] | combination Emax [10] | combination Emax [11] | combination Emax [12] | combination Emax [13] | combination Emax [14] | combination Emax (U-2-OS (Osteosarcoma)) | combination Emax [15] |
| --- | --- | --- | --- | --- | --- | --- | --- | --- | --- | --- | --- | --- | --- | --- | --- | --- | --- | --- | --- | --- |
| CCN(CCO)CCCOc1ccc2c(Nc3cc(CC(=O)Nc4cccc(F)c4)[nH]n3)ncnc2c1 [AZD2811] + C=CCn1c(=O)c2cnc(Nc3ccc(N4CCN(C)CC4)cc3)nc2n1-c1cccc(C(C)(C)O)n1 [AZD1775] (first compound max 1 µM, partner max 1 µM) | 0.902 | 0.599 | 0.633 | 0.849 | 0.898 | 0.219 | 0.161 | 0.882 | 0.737 | 0.465 | 0.327 | 0.194 | 0.607 | 0.305 | 0.354 | 0.537 | 0.455 | 0.365 | 0.628 | 0.558 |
| NC1(C(=O)N[C@@H](CCO)c2ccc(Cl)cc2)CCN(c2ncnc3[nH]ccc23)CC1 [Capivasertib] + CC(=O)c1c(C)c2cnc(Nc3ccc(N4CCNCC4)cn3)nc2n(C2CCCC2)c1=O [Palbociclib] (first compound max 10 µM, 7x7, partner max 10 µM) | 0.846 | 0.764 | 0.479 | 0.337 | 0.506 | 0.358 | 0.74 | 0.613 | 0.396 | 0.656 | 0.382 | 0.364 | 0.557 | 0.454 | 0.49 | 0.5 | 0.62 | 0.447 | 0.408 | 0.514 |
| COc1nnc2ccc(N3CCC(c4ccc(OCCN5CCN(C)C(=O)[C@H]5C)cc4)CC3)nn12 [AZD5153] + CCN(CCO)CCCOc1ccc2c(Nc3cc(CC(=O)Nc4cccc(F)c4)[nH]n3)ncnc2c1 [AZD2811] (first compound max 1 µM, 7x7, partner max 1 µM) | 1 | 0.834 | 0.372 | 0.858 | 0.884 | 0.766 | 0.263 | 0.509 | 0.597 | 0.466 | 0.432 | 0.429 | 0.56 | 0.304 | 0.554 | 0.507 | 0.566 | 0.692 | 0.405 | 0.789 |
